Legend:
Test in all cases: KINOMEscan
Assay type in all cases: binding
Settings in all cases: read-out: %Ctrl @ 1000 nM
BMPR1A = biological target: T1, BMPR1A (Homo sapiens, UniProt P36894)
T1 construct: purchased DiscoveRx KINOMEscan

JNK1 = biological target: T2, JNK1 (Homo sapiens, UniProt P45983)
T2 construct: purchased DiscoveRx KINOMEscan

IKK-alpha = biological target: T3, IKK-alpha (Homo sapiens, UniProt O15111)
T3 construct: purchased DiscoveRx KINOMEscan

BRSK1 = biological target: T4, BRSK1 (Homo sapiens, UniProt Q8TDC3)
T4 construct: purchased DiscoveRx KINOMEscan

ANKK1 = biological target: T5, ANKK1 (Homo sapiens, UniProt Q8NFD2)
T5 construct: purchased DiscoveRx KINOMEscan

PIK3CG = biological target: T6, PIK3CG (Homo sapiens, UniProt P48736)
T6 construct: purchased DiscoveRx KINOMEscan

DMPK2 = biological target: T7, DMPK2 (Homo sapiens, UniProt Q6DT37)
T7 construct: purchased DiscoveRx KINOMEscan

IRAK1 = biological target: T8, IRAK1 (Homo sapiens, UniProt P51617)
T8 construct: purchased DiscoveRx KINOMEscan

SLK = biological target: T9, SLK (Homo sapiens, UniProt Q9H2G2)
T9 construct: purchased DiscoveRx KINOMEscan

HIPK4 = biological target: T10, HIPK4 (Homo sapiens, UniProt Q8NE63)
T10 construct: purchased DiscoveRx KINOMEscan

EPHA4 = biological target: T11, EPHA4 (Homo sapiens, UniProt P54764)
T11 construct: purchased DiscoveRx KINOMEscan

CLK2 = biological target: T12, CLK2 (Homo sapiens, UniProt P49760)
T12 construct: purchased DiscoveRx KINOMEscan

GAK = biological target: T13, GAK (Homo sapiens, UniProt O14976)
T13 construct: purchased DiscoveRx KINOMEscan

[1] = biological target: T14, ABL1(T315I)-nonphosphorylated (Homo sapiens, UniProt P00519, T315I)
T14 construct: purchased DiscoveRx (KINOMEscan service)

[2] = biological target: T15, RSK3(Kin.Dom.2-C-terminal) (Homo sapiens, UniProt Q15349)
T15 construct: RSK3(Kin.Dom.2-C-terminal); purchased DiscoveRx KINOMEscan

AMPK-alpha2 = biological target: T16, AMPK-alpha2 (Homo sapiens, UniProt P54646)
T16 construct: purchased DiscoveRx KINOMEscan

STK35 = biological target: T17, STK35 (Homo sapiens, UniProt Q8TDR2)
T17 construct: purchased DiscoveRx KINOMEscan

PKAC-beta = biological target: T18, PKAC-beta (Homo sapiens, UniProt P22694)
T18 construct: purchased DiscoveRx KINOMEscan

NLK = biological target: T19, NLK (Homo sapiens, UniProt Q9UBE8)
T19 construct: purchased DiscoveRx KINOMEscan

MYLK2 = biological target: T20, MYLK2 (Homo sapiens, UniProt Q9H1R3)
T20 construct: purchased DiscoveRx KINOMEscan

ADCK4 = biological target: T21, ADCK4 (Homo sapiens, UniProt Q96D53)
T21 construct: purchased DiscoveRx KINOMEscan

FLT3(N841I) = biological target: T22, FLT3(N841I) (Homo sapiens, UniProt P36888, N841I)
T22 construct: purchased DiscoveRx KINOMEscan

CSF1R-autoinhibited = biological target: T23, CSF1R-autoinhibited (Homo sapiens, UniProt P07333)
T23 construct: purchased DiscoveRx KINOMEscan

[3] = biological target: T24, RSK4(Kin.Dom.2-C-terminal) (Homo sapiens, UniProt Q9UK32)
T24 construct: RSK4(Kin.Dom.2-C-terminal); purchased DiscoveRx KINOMEscan

PIK4CB = biological target: T25, PIK4CB (Homo sapiens, UniProt Q9UBF8)
T25 construct: purchased DiscoveRx KINOMEscan

MERTK = biological target: T26, MERTK (Homo sapiens, UniProt Q12866)
T26 construct: purchased DiscoveRx KINOMEscan

EPHA6 = biological target: T27, EPHA6 (Homo sapiens, UniProt Q9UF33)
T27 construct: purchased DiscoveRx KINOMEscan

[4] = biological target: T28, ABL1(F317I)-nonphosphorylated (Homo sapiens, UniProt P00519, F317I)
T28 construct: purchased DiscoveRx (KINOMEscan service)

MELK = biological target: T29, MELK (Homo sapiens, UniProt Q14680)
T29 construct: purchased DiscoveRx KINOMEscan

PKN2 = biological target: T30, PKN2 (Homo sapiens, UniProt Q16513)
T30 construct: purchased DiscoveRx KINOMEscan

[5] = biological target: T31, JAK3(JH1domain-catalytic) (Homo sapiens, UniProt P52333)
T31 construct: JAK3(JH1domain-catalytic); purchased DiscoveRx KINOMEscan

LOK = biological target: T32, LOK (Homo sapiens, UniProt O94804)
T32 construct: purchased DiscoveRx KINOMEscan

SNARK = biological target: T33, SNARK (Homo sapiens, UniProt Q9H093)
T33 construct: purchased DiscoveRx KINOMEscan

EPHB1 = biological target: T34, EPHB1 (Homo sapiens, UniProt P54762)
T34 construct: purchased DiscoveRx KINOMEscan

CAMKK1 = biological target: T35, CAMKK1 (Homo sapiens, UniProt Q8N5S9)
T35 construct: purchased DiscoveRx KINOMEscan

p38-gamma = biological target: T36, p38-gamma (Homo sapiens, UniProt P53778)
T36 construct: purchased DiscoveRx KINOMEscan

TGFBR1 = biological target: T37, TGFBR1 (Homo sapiens, UniProt P36897)
T37 construct: purchased DiscoveRx KINOMEscan

MAP4K5 = biological target: T38, MAP4K5 (Homo sapiens, UniProt Q9Y4K4)
T38 construct: purchased DiscoveRx KINOMEscan

CDK3 = biological target: T39, CDK3 (Homo sapiens, UniProt Q00526)
T39 construct: purchased DiscoveRx KINOMEscan

SNRK = biological target: T40, SNRK (Homo sapiens, UniProt Q9NRH2)
T40 construct: purchased DiscoveRx KINOMEscan

ACVRL1 = biological target: T41, ACVRL1 (Homo sapiens, UniProt P37023)
T41 construct: purchased DiscoveRx KINOMEscan

NIK = biological target: T42, NIK (Homo sapiens, UniProt Q99558)
T42 construct: purchased DiscoveRx KINOMEscan

MEK4 = biological target: T43, MEK4 (Homo sapiens, UniProt P45985)
T43 construct: purchased DiscoveRx KINOMEscan

T24 sequence (Q9UK32 426-683 limits assumed): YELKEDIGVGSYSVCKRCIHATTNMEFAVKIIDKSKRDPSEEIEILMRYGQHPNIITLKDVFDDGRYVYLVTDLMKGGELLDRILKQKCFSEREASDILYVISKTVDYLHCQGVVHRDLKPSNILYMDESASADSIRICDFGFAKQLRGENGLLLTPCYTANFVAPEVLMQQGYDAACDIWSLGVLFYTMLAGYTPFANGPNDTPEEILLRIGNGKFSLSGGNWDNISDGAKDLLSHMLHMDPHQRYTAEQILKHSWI
T30 sequence (Q16513 whole entry): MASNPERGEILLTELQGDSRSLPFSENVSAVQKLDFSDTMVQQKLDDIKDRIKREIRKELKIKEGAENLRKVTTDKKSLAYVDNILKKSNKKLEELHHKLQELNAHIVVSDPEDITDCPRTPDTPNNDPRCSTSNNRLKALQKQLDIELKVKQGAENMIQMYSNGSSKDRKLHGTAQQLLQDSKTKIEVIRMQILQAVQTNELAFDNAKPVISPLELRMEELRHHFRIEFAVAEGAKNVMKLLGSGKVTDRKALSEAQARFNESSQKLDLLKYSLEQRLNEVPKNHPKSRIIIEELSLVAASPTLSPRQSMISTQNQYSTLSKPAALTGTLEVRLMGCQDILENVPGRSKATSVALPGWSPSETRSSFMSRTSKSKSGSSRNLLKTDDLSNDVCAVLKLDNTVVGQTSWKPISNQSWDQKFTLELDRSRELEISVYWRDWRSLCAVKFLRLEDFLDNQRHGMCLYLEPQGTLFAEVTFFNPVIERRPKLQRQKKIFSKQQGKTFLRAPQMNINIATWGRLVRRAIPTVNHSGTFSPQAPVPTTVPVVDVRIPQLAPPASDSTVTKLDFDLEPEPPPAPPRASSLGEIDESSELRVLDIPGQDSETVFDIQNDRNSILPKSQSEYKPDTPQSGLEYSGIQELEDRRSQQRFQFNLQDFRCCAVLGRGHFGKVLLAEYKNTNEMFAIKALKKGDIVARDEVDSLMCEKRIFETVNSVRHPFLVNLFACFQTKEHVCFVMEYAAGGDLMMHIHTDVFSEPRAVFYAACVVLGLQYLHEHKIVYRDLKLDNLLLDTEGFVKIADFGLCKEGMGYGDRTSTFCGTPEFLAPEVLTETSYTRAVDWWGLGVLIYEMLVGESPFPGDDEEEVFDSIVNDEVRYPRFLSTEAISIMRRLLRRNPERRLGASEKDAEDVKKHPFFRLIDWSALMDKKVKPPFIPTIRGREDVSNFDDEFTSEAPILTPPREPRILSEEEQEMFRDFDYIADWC
T17 sequence (Q8TDR2 whole entry): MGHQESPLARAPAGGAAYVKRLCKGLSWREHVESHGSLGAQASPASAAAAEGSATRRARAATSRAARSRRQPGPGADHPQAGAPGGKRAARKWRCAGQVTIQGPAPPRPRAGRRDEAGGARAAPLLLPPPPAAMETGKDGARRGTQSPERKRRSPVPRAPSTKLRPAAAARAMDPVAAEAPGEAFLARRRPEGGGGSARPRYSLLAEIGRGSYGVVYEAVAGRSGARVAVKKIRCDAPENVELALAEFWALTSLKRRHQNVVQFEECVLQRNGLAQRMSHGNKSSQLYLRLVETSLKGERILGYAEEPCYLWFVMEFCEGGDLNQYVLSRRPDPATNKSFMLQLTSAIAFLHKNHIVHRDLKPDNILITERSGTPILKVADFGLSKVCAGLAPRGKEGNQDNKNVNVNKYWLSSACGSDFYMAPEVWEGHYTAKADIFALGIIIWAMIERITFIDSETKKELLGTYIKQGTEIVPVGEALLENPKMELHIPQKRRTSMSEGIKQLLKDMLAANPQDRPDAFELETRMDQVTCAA
T27 sequence (Q9UF33 23-1036): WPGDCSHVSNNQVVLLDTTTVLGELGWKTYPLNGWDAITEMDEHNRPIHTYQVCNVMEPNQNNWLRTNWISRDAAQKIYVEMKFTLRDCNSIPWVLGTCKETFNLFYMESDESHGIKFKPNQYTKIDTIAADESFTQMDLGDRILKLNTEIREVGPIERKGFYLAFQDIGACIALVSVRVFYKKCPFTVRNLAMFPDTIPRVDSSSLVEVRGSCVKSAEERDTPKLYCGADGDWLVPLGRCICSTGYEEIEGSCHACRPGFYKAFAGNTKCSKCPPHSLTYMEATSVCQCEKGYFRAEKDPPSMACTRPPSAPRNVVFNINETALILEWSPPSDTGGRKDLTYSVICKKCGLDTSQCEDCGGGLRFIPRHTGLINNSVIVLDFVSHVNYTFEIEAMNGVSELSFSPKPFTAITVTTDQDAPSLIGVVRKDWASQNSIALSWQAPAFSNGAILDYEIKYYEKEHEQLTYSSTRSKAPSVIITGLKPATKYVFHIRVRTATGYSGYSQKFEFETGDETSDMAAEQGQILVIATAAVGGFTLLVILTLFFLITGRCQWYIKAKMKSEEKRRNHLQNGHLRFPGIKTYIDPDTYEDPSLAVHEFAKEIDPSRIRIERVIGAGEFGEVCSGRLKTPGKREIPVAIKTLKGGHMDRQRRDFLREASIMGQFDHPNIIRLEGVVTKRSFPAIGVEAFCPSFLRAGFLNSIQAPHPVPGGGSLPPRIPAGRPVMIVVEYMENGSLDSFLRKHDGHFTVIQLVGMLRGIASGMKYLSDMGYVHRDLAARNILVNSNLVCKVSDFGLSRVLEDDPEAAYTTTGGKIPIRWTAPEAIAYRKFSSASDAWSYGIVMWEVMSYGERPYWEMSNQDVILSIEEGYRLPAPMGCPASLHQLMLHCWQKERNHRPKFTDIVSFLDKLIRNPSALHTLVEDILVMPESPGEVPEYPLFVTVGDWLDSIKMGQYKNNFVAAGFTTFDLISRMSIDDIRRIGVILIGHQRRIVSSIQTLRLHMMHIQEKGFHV
T7 sequence (Q6DT37 whole entry): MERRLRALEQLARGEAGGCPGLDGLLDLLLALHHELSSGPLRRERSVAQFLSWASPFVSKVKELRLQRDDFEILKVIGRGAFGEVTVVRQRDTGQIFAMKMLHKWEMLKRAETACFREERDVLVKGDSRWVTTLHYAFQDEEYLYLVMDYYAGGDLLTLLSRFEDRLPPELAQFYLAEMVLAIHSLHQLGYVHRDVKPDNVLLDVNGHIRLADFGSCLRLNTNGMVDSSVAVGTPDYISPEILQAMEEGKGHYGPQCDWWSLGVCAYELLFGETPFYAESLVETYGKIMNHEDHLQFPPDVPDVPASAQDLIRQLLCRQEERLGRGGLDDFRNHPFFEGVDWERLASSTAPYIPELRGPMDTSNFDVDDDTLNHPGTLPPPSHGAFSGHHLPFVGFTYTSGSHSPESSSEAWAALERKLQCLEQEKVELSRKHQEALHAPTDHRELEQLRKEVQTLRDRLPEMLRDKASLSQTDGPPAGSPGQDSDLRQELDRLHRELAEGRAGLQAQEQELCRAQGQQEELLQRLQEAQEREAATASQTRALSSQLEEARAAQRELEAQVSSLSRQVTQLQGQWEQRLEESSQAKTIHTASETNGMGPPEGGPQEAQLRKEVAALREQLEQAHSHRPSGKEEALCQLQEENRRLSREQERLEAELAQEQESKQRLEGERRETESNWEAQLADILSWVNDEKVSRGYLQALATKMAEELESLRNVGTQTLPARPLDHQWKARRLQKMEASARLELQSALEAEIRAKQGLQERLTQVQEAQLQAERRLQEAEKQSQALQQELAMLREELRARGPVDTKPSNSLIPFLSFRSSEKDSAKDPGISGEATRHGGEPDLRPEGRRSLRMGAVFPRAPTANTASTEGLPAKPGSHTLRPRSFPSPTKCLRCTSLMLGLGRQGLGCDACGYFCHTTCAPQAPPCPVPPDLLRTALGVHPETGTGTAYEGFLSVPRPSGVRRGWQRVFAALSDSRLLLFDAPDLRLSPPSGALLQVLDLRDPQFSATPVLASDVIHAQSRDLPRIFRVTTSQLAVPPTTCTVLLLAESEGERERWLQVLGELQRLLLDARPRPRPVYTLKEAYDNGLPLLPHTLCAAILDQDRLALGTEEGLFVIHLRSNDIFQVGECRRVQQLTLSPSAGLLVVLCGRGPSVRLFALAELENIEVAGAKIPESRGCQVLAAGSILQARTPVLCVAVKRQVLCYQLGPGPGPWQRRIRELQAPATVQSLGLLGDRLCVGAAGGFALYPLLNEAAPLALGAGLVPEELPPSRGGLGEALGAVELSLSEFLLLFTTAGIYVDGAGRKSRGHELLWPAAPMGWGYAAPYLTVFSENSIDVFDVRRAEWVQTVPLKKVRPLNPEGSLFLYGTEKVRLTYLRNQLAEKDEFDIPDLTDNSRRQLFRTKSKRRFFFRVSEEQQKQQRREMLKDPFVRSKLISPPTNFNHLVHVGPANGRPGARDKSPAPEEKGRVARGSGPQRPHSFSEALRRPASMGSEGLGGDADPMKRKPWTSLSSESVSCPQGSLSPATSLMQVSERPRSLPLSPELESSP
T31 sequence (P52333 822-1124 limits assumed): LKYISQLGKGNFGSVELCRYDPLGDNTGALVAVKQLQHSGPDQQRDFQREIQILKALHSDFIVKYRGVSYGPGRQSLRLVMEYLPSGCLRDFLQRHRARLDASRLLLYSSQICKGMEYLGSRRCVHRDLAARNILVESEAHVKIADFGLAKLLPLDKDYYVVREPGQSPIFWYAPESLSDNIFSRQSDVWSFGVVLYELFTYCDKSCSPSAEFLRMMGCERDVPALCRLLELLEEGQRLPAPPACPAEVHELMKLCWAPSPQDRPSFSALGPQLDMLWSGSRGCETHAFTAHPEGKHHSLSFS
T15 sequence (Q15349 415-672 limits assumed): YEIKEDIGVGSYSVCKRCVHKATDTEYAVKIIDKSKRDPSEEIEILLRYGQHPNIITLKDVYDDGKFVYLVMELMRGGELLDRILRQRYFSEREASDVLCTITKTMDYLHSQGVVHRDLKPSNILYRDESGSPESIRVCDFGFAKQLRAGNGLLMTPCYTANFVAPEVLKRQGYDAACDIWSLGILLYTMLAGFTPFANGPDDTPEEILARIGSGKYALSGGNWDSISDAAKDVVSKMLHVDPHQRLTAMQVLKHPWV

`CCN(C(=O)CO)[C@H]1CN(/C(=N\C#N)Nc2cccc(OC(F)F)c2)N=C1c1ccc(Cl)c(Cl)c1` [(S)-4] gave a remaining binding at 1 µM (BMPR1A) of 100%, a remaining binding at 1 µM (JNK1) of 96% and a remaining binding at 1 µM (IKK-alpha) of 92%. It also gave a remaining binding at 1 µM (BRSK1) of 100%, a remaining binding at 1 µM (ANKK1) of 92% and a remaining binding at 1 µM (PIK3CG) of 90%. The remaining binding at 1 µM (DMPK2) was 66%, the remaining binding at 1 µM (IRAK1) was 92% and the remaining binding at 1 µM (SLK) was 66%. For the same compound, the remaining binding at 1 µM (HIPK4) was 100%, the remaining binding at 1 µM (EPHA4) was 90% and the remaining binding at 1 µM (CLK2) was 97%. It also gave a remaining binding at 1 µM (GAK) of 100%, a remaining binding at 1 µM [1] of 77% and a remaining binding at 1 µM [2] of 100%. It also gave a remaining binding at 1 µM (AMPK-alpha2) of 85%, a remaining binding at 1 µM (STK35) of 100% and a remaining binding at 1 µM (PKAC-beta) of 100%. It also gave a remaining binding at 1 µM (NLK) of 100%, a remaining binding at 1 µM (MYLK2) of 100% and a remaining binding at 1 µM (ADCK4) of 81%. The remaining binding at 1 µM (FLT3(N841I)) was 95%, the remaining binding at 1 µM (CSF1R-autoinhibited) was 47% and the remaining binding at 1 µM [3] was 100%. For the same compound, the remaining binding at 1 µM (PIK4CB) was 100%, the remaining binding at 1 µM (MERTK) was 73% and the remaining binding at 1 µM (EPHA6) was 99%. It also gave a remaining binding at 1 µM [4] of 100%, a remaining binding at 1 µM (MELK) of 99% and a remaining binding at 1 µM (PKN2) of 100%. It also gave a remaining binding at 1 µM [5] of 48%, a remaining binding at 1 µM (LOK) of 69% and a remaining binding at 1 µM (SNARK) of 100%. For the same compound, the remaining binding at 1 µM (EPHB1) was 94%, the remaining binding at 1 µM (CAMKK1) was 84% and the remaining binding at 1 µM (p38-gamma) was 70%. For the same compound, the remaining binding at 1 µM (TGFBR1) was 100%, the remaining binding at 1 µM (MAP4K5) was 100% and the remaining binding at 1 µM (CDK3) was 91%. It also gave a remaining binding at 1 µM (SNRK) of 85%, a remaining binding at 1 µM (ACVRL1) of 74% and a remaining binding at 1 µM (NIK) of 100%. The remaining binding at 1 µM (MEK4) was 100%.

Reference: PMC4917279 (Journal of Medicinal Chemistry, 2016)
